Experimental data from patent publication US12714696B2, “Low dose fluralaner compositions for protection against parasitic invertebrate pest” (VIRBAC, priority 2019, dated 2026).
Several values for one entry are separate records, joined by “and”; a condition that tells them apart may be missing. Equal values may be shown once. Read-outs that look alike come from different tables or passages of the source.

Assay: Pharmacokinetics after repeated oral administration of 250 μg/kg and 35 μg/kg of fluralaner in dogs after feeding
Assay type: in vivo, beagle dogs
Conditions: for concentration at 24 h / concentration at 48 h / concentration at 72 h / concentration at 96 h / concentration at 120 h / concentration at 144 h / concentration at 168 h: beagle, dog, plasma, po
Experimental: The first objective is to obtain the pharmacokinetic parameters after repeated oral administration of […] and 35 μg/kg of fluralaner in dogs after feeding.
The second objective is to investigate the pharmacodynamics between the fluralaner plasmatic dose and the effectiveness against ticks. • IVP: Investigational Veterinary Product, is pure Fluralaner+DMSO (250 μg/kg on Days 0 to 3 (0.25 mL/kg), then 35 μg/kg on Days 4 to 9 (0.35 mL/kg), then 600 μg/kg on Day 11) • Control product is DMSO (0.25 mL/kg on Days 0 to 3, then 0.35 mL/kg on Days 4 to 9)
On Days 0, 1, 2 and 3, all dogs assigned to group 2 received the Investigational Veterinary Product. On Days 0 to 3 all dogs in group 1 received the control product at a volume equal to the dogs in group 2. Dogs assigned to group 1 received the control product and served as Placebo controls. The quantity of Investigational Veterinary Product and control product administered was calculated according to the dog's individual body weight measured on Day −1. […]
On days of administration of pre-Investigational Veterinary Product or Control Product, dogs were fed (the same dog food) approximately half of their normal daily ration 30 minutes to 35 minutes prior to administration. Food consumed by the time of administration was calculated and recorded. The remainder of their normal daily ration was fed immediately after administration.
The PK parameters of fluralaner were calculated using a non-compartmental approach.
The following rules were applied for the calculation of the PK parameters: • All the plasma concentrations, validated by the bioanalytical laboratory, were used for the PK analysis. • The actual blood sampling times were used throughout. • Concentrations below the Limit of Quantification (LOQ) value were considered as zero from time zero (pre-dose) up to the time at which the first quantifiable concentration above the LOQ value was observed. Concentrations below the LOQ value between two quantifiable concentrations were considered as missing. Trailing concentrations below the LOQ value were not used in calculations.
Cmax the observed maximum concentration in plasma measured after dosing.
λz the terminal rate constant (λz) was estimated by log-linear regression analysis on data points visually assessed, to be on the terminal log-linear phase. For the slope of the terminal elimination phase to be accepted as reliable, the following criteria were used: • the terminal data points were apparently randomly distributed about a single straight line (on visual inspection), • a minimum of three data points, including the last measured data point and excluding Cmax, were available for the regression.
t1/2 the terminal plasma half-life (t1/2) was calculated according to the following equation: […]

Cc1cc(C2=NOC(c3cc(Cl)cc(Cl)c3)(C(F)(F)F)C2)ccc1C(=O)NCC(=O)NCC(F)(F)F (stereo not drawn) [fluralaner, Fluralaner]
fluralaner concentration levels, individual animal (24 h, oral 250 μg/kg Days 0-3, 35 μg/kg Days 4-9, 600 μg/kg Day 11, dogs): 142 ng/mL and 158 ng/mL and 129 ng/mL | fluralaner concentration levels, individual animal (48 h, oral 250 μg/kg Days 0-3, 35 μg/kg Days 4-9, 600 μg/kg Day 11, dogs): 269 ng/mL and 283 ng/mL and 253 ng/mL | fluralaner concentration levels, individual animal (72 h, oral 250 μg/kg Days 0-3, 35 μg/kg Days 4-9, 600 μg/kg Day 11, dogs): 381 ng/mL and 378 ng/mL and 373 ng/mL | fluralaner concentration levels, individual animal (96 h, oral 250 μg/kg Days 0-3, 35 μg/kg Days 4-9, 600 μg/kg Day 11, dogs): 496 ng/mL and 572 ng/mL and 515 ng/mL | fluralaner concentration levels, individual animal (120 h, oral 250 μg/kg Days 0-3, 35 μg/kg Days 4-9, 600 μg/kg Day 11, dogs): 465 ng/mL and 535 ng/mL and 554 ng/mL | fluralaner concentration levels, individual animal (144 h, oral 250 μg/kg Days 0-3, 35 μg/kg Days 4-9, 600 μg/kg Day 11, dogs): 510 ng/mL and 447 ng/mL and 454 ng/mL | fluralaner concentration levels, individual animal (168 h, oral 250 μg/kg Days 0-3, 35 μg/kg Days 4-9, 600 μg/kg Day 11, dogs): 521 ng/mL and 536 ng/mL and 520 ng/mL | fluralaner concentration levels, individual animal (192 h, oral 250 μg/kg Days 0-3, 35 μg/kg Days 4-9, 600 μg/kg Day 11, dogs): 456 ng/mL and 558 ng/mL and 455 ng/mL | fluralaner concentration levels, individual animal (216 h, oral 250 μg/kg Days 0-3, 35 μg/kg Days 4-9, 600 μg/kg Day 11, dogs): 468 ng/mL and 551 ng/mL and 472 ng/mL and 493 ng/mL | fluralaner concentration levels, individual animal (240 h, oral 250 μg/kg Days 0-3, 35 μg/kg Days 4-9, 600 μg/kg Day 11, dogs): 423 ng/mL and 368 ng/mL and 724 ng/mL and 422 ng/mL | fluralaner concentration levels, individual animal (384 h, oral 250 μg/kg Days 0-3, 35 μg/kg Days 4-9, 600 μg/kg Day 11, dogs): 893 ng/mL and 523 ng/mL and 715 ng/mL and 1000 ng/mL | fluralaner concentration levels, individual animal (528 h, oral 250 μg/kg Days 0-3, 35 μg/kg Days 4-9, 600 μg/kg Day 11, dogs): 267 ng/mL and 373 ng/mL and 235 ng/mL and 517 ng/mL and 283 ng/mL | fluralaner concentration levels, individual animal (624 h, oral 250 μg/kg Days 0-3, 35 μg/kg Days 4-9, 600 μg/kg Day 11, dogs): 223 ng/mL and 280 ng/mL and 182 ng/mL and 403 ng/mL and 227 ng/mL | fluralaner concentration levels, individual animal (720 h, oral 250 μg/kg Days 0-3, 35 μg/kg Days 4-9, 600 μg/kg Day 11, dogs): 285 ng/mL and 275 ng/mL and 248 ng/mL and 187 ng/mL | steady state concentrations (after the fourth dose application 250 μg/kg per day (on Day 3)): not been reached | concentration at 24 h (24 h, oral 250 μg/kg Days 0-3, 35 μg/kg Days 4-9, 600 μg/kg Day 11, dogs, read-out: fluralaner concentration levels, individual animal): 160 ng/mL | concentration at 24 h (24 h, oral 250/35/600 μg/kg regimen, dogs, n=6, read-out: fluralaner concentration levels, GeoMean): 145 ng/mL | concentration at 24 h (24 h, oral 250/35/600 μg/kg regimen, dogs, n=6, read-out: fluralaner concentration levels, Maximum): 160 ng/mL | concentration at 24 h (24 h, oral 250/35/600 μg/kg regimen, dogs, n=6, read-out: fluralaner concentration levels, Mean): 146 ng/mL | concentration at 24 h (24 h, oral 250/35/600 μg/kg regimen, dogs, n=6, read-out: fluralaner concentration levels, Median): 146 ng/mL | concentration at 24 h (24 h, oral 250/35/600 μg/kg regimen, dogs, n=6, read-out: fluralaner concentration levels, Minimum): 129 ng/mL | concentration at 48 h (48 h, oral 250 μg/kg Days 0-3, 35 μg/kg Days 4-9, 600 μg/kg Day 11, dogs, read-out: fluralaner concentration levels, individual animal): 257 ng/mL | concentration at 48 h (48 h, oral 250/35/600 μg/kg regimen, dogs, n=6, read-out: fluralaner concentration levels, GeoMean): 269 ng/mL | concentration at 48 h (48 h, oral 250/35/600 μg/kg regimen, dogs, n=6, read-out: fluralaner concentration levels, Maximum): 312 ng/mL | concentration at 48 h (48 h, oral 250/35/600 μg/kg regimen, dogs, n=6, read-out: fluralaner concentration levels, Mean): 270 ng/mL | concentration at 48 h (48 h, oral 250/35/600 μg/kg regimen, dogs, n=6, read-out: fluralaner concentration levels, Median): 263 ng/mL | concentration at 48 h (48 h, oral 250/35/600 μg/kg regimen, dogs, n=6, read-out: fluralaner concentration levels, Minimum): 245 ng/mL | concentration at 72 h (72 h, oral 250 μg/kg Days 0-3, 35 μg/kg Days 4-9, 600 μg/kg Day 11, dogs, read-out: fluralaner concentration levels, individual animal): 366 ng/mL | concentration at 72 h (72 h, oral 250/35/600 μg/kg regimen, dogs, n=6, read-out: fluralaner concentration levels, GeoMean): 386 ng/mL | concentration at 72 h (72 h, oral 250/35/600 μg/kg regimen, dogs, n=6, read-out: fluralaner concentration levels, Maximum): 469 ng/mL | concentration at 72 h (72 h, oral 250/35/600 μg/kg regimen, dogs, n=6, read-out: fluralaner concentration levels, Mean): 388 ng/mL | concentration at 72 h (72 h, oral 250/35/600 μg/kg regimen, dogs, n=6, read-out: fluralaner concentration levels, Median): 376 ng/mL | concentration at 72 h (72 h, oral 250/35/600 μg/kg regimen, dogs, n=6, read-out: fluralaner concentration levels, Minimum): 361 ng/mL | concentration at 96 h (96 h, oral 250 μg/kg Days 0-3, 35 μg/kg Days 4-9, 600 μg/kg Day 11, dogs, read-out: fluralaner concentration levels, individual animal): 497 ng/mL | concentration at 96 h (96 h, oral 250/35/600 μg/kg regimen, dogs, n=6, read-out: fluralaner concentration levels, GeoMean): 524 ng/mL | concentration at 96 h (96 h, oral 250/35/600 μg/kg regimen, dogs, n=6, read-out: fluralaner concentration levels, Maximum): 602 ng/mL | concentration at 96 h (96 h, oral 250/35/600 μg/kg regimen, dogs, n=6, read-out: fluralaner concentration levels, Mean): 526 ng/mL | concentration at 96 h (96 h, oral 250/35/600 μg/kg regimen, dogs, n=6, read-out: fluralaner concentration levels, Median): 506 ng/mL | concentration at 96 h (96 h, oral 250/35/600 μg/kg regimen, dogs, n=6, read-out: fluralaner concentration levels, Minimum): 471 ng/mL | concentration at 120 h (120 h, oral 250 μg/kg Days 0-3, 35 μg/kg Days 4-9, 600 μg/kg Day 11, dogs, read-out: fluralaner concentration levels, individual animal): 495 ng/mL | concentration at 120 h (120 h, oral 250/35/600 μg/kg regimen, dogs, n=6, read-out: fluralaner concentration levels, GeoMean): 508 ng/mL | concentration at 120 h (120 h, oral 250/35/600 μg/kg regimen, dogs, n=6, read-out: fluralaner concentration levels, Maximum): 554 ng/mL | concentration at 120 h (120 h, oral 250/35/600 μg/kg regimen, dogs, n=6, read-out: fluralaner concentration levels, Mean): 509 ng/mL | concentration at 120 h (120 h, oral 250/35/600 μg/kg regimen, dogs, n=6, read-out: fluralaner concentration levels, Median): 515 ng/mL | concentration at 120 h (120 h, oral 250/35/600 μg/kg regimen, dogs, n=6, read-out: fluralaner concentration levels, Minimum): 465 ng/mL | concentration at 144 h (144 h, oral 250 μg/kg Days 0-3, 35 μg/kg Days 4-9, 600 μg/kg Day 11, dogs, read-out: fluralaner concentration levels, individual animal): 497 ng/mL | concentration at 144 h (144 h, oral 250/35/600 μg/kg regimen, dogs, n=6, read-out: fluralaner concentration levels, GeoMean): 491 ng/mL | concentration at 144 h (144 h, oral 250/35/600 μg/kg regimen, dogs, n=6, read-out: fluralaner concentration levels, Maximum): 550 ng/mL | concentration at 144 h (144 h, oral 250/35/600 μg/kg regimen, dogs, n=6, read-out: fluralaner concentration levels, Mean): 492 ng/mL | concentration at 144 h (144 h, oral 250/35/600 μg/kg regimen, dogs, n=6, read-out: fluralaner concentration levels, Median): 496 ng/mL | concentration at 144 h (144 h, oral 250/35/600 μg/kg regimen, dogs, n=6, read-out: fluralaner concentration levels, Minimum): 447 ng/mL | concentration at 168 h (168 h, oral 250 μg/kg Days 0-3, 35 μg/kg Days 4-9, 600 μg/kg Day 11, dogs, read-out: fluralaner concentration levels, individual animal): 491 ng/mL | concentration at 168 h (168 h, oral 250/35/600 μg/kg regimen, dogs, n=6, read-out: fluralaner concentration levels, GeoMean): 517 ng/mL | concentration at 168 h (168 h, oral 250/35/600 μg/kg regimen, dogs, n=6, read-out: fluralaner concentration levels, Maximum): 580 ng/mL
